Results published in patent US8569501B2, “Semiconductor materials and methods of preparation and use thereof” (BASF SE, priority 2008, dated 2013).
Values after ≈ are worked out from the molar mass of the structure shown.

test: Solubility in organic solvents; type: physicochemical; settings: in dichlorobenzene at 60° C.
Description: All of the mono-bromo mono-cyano perylenes and dimeric perylenes are sufficiently soluble for processing in conventional organic solvents such as chloroform, xylene, dichlorobenzene, and anisole.

SMILES	Solubility [µg/mL]
CCCCC(CC)CN1C(=O)c2ccc3c4c(-c5ccc(-c6ccc(-c7cc8c9c(ccc%10c%11c(C#N)cc%12c%13c(ccc(c7c9%10)c%13%11)C(=O)N(CC(CC)CCCC)C%12=O)C(=O)N(CC(CC)CCCC)C8=O)s6)s5)cc5c6c(ccc(c7c(C#N)cc(c2c37)C1=O)c64)C(=O)N(CC(CC)CCCC)C5=O (stereo not drawn) [BPDI(2EH)-BT, 5,5′-bis-[N,N′-bis(2-ethylhexyl)-1-cyanoperylene-3,4:9,10-bis(dicarboxiimide)-7-yl]-2,2′-bithiophene]	5500 (≈ 3.81 mM)
CCCCCCCCN1C(=O)c2ccc3c4c(-c5ccc(-c6ccc(-c7cc8c9c(ccc%10c%11c(C#N)cc%12c%13c(ccc(c7c9%10)c%13%11)C(=O)N(CCCCCCCC)C%12=O)C(=O)N(CCCCCCCC)C8=O)s6)s5)cc5c6c(ccc(c7c(C#N)cc(c2c37)C1=O)c64)C(=O)N(CCCCCCCC)C5=O [BPDI(8)-BT, 5,5′-bis-[N,N′-bisoctyl-1-cyanoperylene-3,4:9,10-bis(dicarboxiimide)-7-yl]-2,2′-bithiophene]	7800 (≈ 5.41 mM)
CCCCC(C)N1C(=O)c2ccc3c4c(-c5ccc(-c6ccc(-c7cc8c9c(ccc%10c%11c(C#N)cc%12c%13c(ccc(c7c9%10)c%13%11)C(=O)N(C(C)CCCC)C%12=O)C(=O)N(C(C)CCCC)C8=O)s6)s5)cc5c6c(ccc(c7c(C#N)cc(c2c37)C1=O)c64)C(=O)N(C(C)CCCC)C5=O (stereo not drawn) [BPDI(1MP)-BT, 5,5′-bis-[N,N′-bis(1-methylpentyl)-1-cyanoperylene-3,4:9,10-bis(dicarboxiimide)-7-yl]-2,2′-bithiophene]	33900 (≈ 25.5 mM)
